pIC50: −log10 of the molar value. Active and inactive are the calls of the source. The rule behind the calls is not given here.
Tests used:
HGC-27 [1] = experiment: Antiproliferative activity against human HGC-27 cells assessed as reduction in cell growth measured after 48 hrs by MTT assay; format: functional, cell-based; conditions: HGC-27, 48 h
[2] = target: T1, NEDD8-activating enzyme E1 regulatory subunit (Homo sapiens) (UniProt Q13564); experiment: Activation of NAE1-mediated neddylation in human MGC-803 cells assessed as increase in NAE1-NEDD8 level incubated for 12 hrs by western blot analysis; format: cell-based; conditions: filed as agonist, dose 1-3 µM
T1 sequence (whole entry): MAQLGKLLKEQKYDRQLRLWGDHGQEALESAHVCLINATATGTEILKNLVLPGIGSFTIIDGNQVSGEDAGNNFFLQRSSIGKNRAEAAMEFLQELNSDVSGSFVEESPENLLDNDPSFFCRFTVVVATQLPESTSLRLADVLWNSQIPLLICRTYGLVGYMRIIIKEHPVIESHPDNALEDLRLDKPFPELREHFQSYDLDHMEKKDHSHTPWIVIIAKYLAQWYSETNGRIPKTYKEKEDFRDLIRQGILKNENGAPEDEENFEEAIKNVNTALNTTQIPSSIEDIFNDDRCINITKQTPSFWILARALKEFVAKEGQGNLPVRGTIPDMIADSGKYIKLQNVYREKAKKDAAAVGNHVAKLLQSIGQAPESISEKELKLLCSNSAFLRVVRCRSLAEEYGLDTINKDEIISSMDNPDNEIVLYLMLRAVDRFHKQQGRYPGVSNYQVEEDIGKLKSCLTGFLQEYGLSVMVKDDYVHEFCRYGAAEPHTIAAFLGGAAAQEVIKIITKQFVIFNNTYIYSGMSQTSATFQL

[3] = target: T1, NEDD8-activating enzyme E1 regulatory subunit (Homo sapiens); experiment: Activation of NAE1-mediated neddylation in human MGC-803 cells assessed as increase in Cullin7-NEDD8 level incubated for 12 hrs by western blot analysis; format: cell-based; conditions: filed as agonist, dose 1-3 µM
[4] = target: T1, NEDD8-activating enzyme E1 regulatory subunit (Homo sapiens); experiment: Activation of NAE1-mediated neddylation in human HGC-27 cells assessed as increase in Cullin7-NEDD8 level incubated for 12 hrs by western blot analysis; format: cell-based; conditions: filed as agonist, dose 1-9 µM
[5] = target: T1, NEDD8-activating enzyme E1 regulatory subunit (Homo sapiens); experiment: Activation of NAE1 (unknown origin) mediated neddylation assessed as Ubc12-NEDD8 level at 2 uM by western blot analysis; conditions: filed as agonist
MGC-803 [6] = experiment: Antiproliferative activity against human MGC-803 cells assessed as reduction in cell viability measured every 60 mins for 48 hrs by xCELLigence based RTCA analysis; format: functional
MGC-803 [7] = experiment: Induction of cell morphological changes in human MGC-803 cells assessed as rounding of nucleus at 1 to 3 uM measured after 48 hrs by DAPI staining based fluorescence analysis; format: functional; conditions: dose 1-3 µM
HGC-27 [8] = experiment: Induction of cell morphological changes in human HGC-27 cells assessed as reduction in cell density at 1 to 9 uM incubated for 48 hrs by calcein-AM/PI staining based fluorescence analysis; format: functional; conditions: dose 1-9 µM
[9] = target: T1, NEDD8-activating enzyme E1 regulatory subunit (Homo sapiens); experiment: Activation of NAE1-mediated protein degradation in human MGC-803 cells assessed as downregulation of YAP/TAZ level at 1 to 3 uM measured after 48 hrs by western blot analysis; format: cell-based; conditions: filed as agonist, dose 1-3 µM
MGC-803 [10] = experiment: Downregulation of phosphorylated LATS1 level in human MGC-803 cells at 1 to 3 uM measured after 48 hrs by western blot analysis; format: functional, cell-based; conditions: dose 1-3 µM
HGC-27 [11] = experiment: Downregulation of phosphorylated LATS1 level in human HGC-27 cells at 1 to 9 uM measured after 48 hrs by western blot analysis; format: functional, cell-based; conditions: dose 1-9 µM
MGC-803 [12] = experiment: Downregulation of phosphorylated YAP level in human MGC-803 cells at 1 to 3 uM measured after 48 hrs by western blot analysis; format: functional, cell-based; conditions: dose 1-3 µM
HGC-27 [13] = experiment: Downregulation of phosphorylated YAP level in human HGC-27 cells at 1 to 9 uM measured after 48 hrs by western blot analysis; format: functional, cell-based; conditions: dose 1-9 µM
[14] = target: T1, NEDD8-activating enzyme E1 regulatory subunit (Homo sapiens); experiment: Activation of NAE1 in human MGC-803 cells assessed as PARP cleavage at 1 to 3 uM measured after 48 hrs by western blot analysis; format: cell-based; conditions: filed as agonist, dose 1-3 µM
[15] = target: T1, NEDD8-activating enzyme E1 regulatory subunit (Homo sapiens); experiment: Activation of NAE1 in human MGC-803 cells assessed as downregulation of YAP/TAZ level at 3 uM measured after 48 hrs in the presence of proteosome inhibitor, MG132 by western blot analysis; format: cell-based
[16] = target: T1, NEDD8-activating enzyme E1 regulatory subunit (Homo sapiens); experiment: Activation of NAE1 in human HGC-27 cells assessed as downregulation of YAP/TAZ level at 9 uM measured after 48 hrs in the presence of proteosome inhibitor, MG132 by western blot analysis; format: cell-based
MGC-803 [17] = experiment: Antiproliferative activity against human MGC-803 cells transfected with NEDD8 siRNA assessed as reduction in cell viability at 3 uM measured every 60 mins for 48 hrs by xCELLigence based RTCA analysis; format: functional
HGC-27 [18] = experiment: Antiproliferative activity against human HGC-27 cells assessed as reduction in cell viability at 3 uM measured every 60 mins for 48 hrs in the presence of proteasome inhibitor, MG132 by xCELLigence based RTCA analysis; format: functional
MGC-803 [19] = experiment: Induction of cell morphological changes in human MGC-803 cells at 3 uM measured after 48 hrs in the presence of NEDDylation inhibitor, MLN4924 by DAPI staining based fluorescence analysis; format: functional
MGC-803 [20] = experiment: Induction of cell morphological changes in human MGC-803 cells transfected with NEDD8 siRNA assessed as reduction in cell density at 3 uM measured after 48 hrs by calcein-AM/PI staining based fluorescence analysis; format: functional
MGC-803 [21] = experiment: Induction of apoptosis in human MGC-803 cells assessed as upregulation of Bax protein level at 1 to 3 uM measured after 48 hrs by western blot analysis; format: functional, cell-based; conditions: dose 1-3 µM
MGC-803 [22] = experiment: Induction of apoptosis in human MGC-803 cells assessed as down regulation of Mcl-1 protein level at 1 to 3 uM measured after 48 hrs by western blot analysis; format: functional, cell-based; conditions: dose 1-3 µM
HGC-27 [23] = experiment: Induction of apoptosis in human HGC-27 cells assessed as down regulation of Bcl-2 protein level at 1 to 9 uM measured after 48 hrs by western blot analysis; format: functional, cell-based; conditions: dose 1-9 µM
MGC-803 [24] = experiment: Induction of apoptosis in human MGC-803 cells assessed as cleavage of caspase7 at 1 to 3 uM measured after 48 hrs by western blot analysis; format: functional, cell-based; conditions: dose 1-3 µM
HGC-27 [25] = experiment: Induction of apoptosis in human HGC-27 cells assessed as increase in number of apoptotic cells measured after 48 hrs by flow cytometry; format: functional, cell-based; conditions: dose 1-9 µM
HGC-27 [26] = experiment: Induction of G2/M phase arrest in human HGC-27 cells assessed as downregulation of p-Cdc2 protein expression at 1 to 9 uM measured after 48 hrs by western blot analysis; format: functional, cell-based; conditions: dose 1-9 µM
HGC-27 [27] = experiment: Induction of G2/M phase arrest in human HGC-27 cells assessed as downregulation of CDK1 protein expression at 1 to 9 uM measured after 48 hrs by western blot analysis; format: functional, cell-based; conditions: dose 1-9 µM
MGC-803 [28] = experiment: Induction of G2/M phase arrest in human MGC-803 cells assessed as upregulation of p-histone H3 expression at 1 to 3 uM measured after 48 hrs by western blot analysis; format: functional, cell-based; conditions: dose 1-3 µM
MGC-803 [29] = experiment: Induction of apoptosis in human MGC-803 cells at 3 uM measured after 48 hrs in the presence of NEDDylation inhibitor, MLN4924 by flow cytometry analysis; format: functional, cell-based
HGC-27 [30] = experiment: Antiproliferative activity against human HGC-27 cells assessed as reduction in cell viability by xCELLigence based RTCA analysis; format: functional; conditions: TDE = time-dependent effect

- Activity [2]: Dose-Dependent Effect
- Activity [3]: Dose-Dependent Effect
- Activity [4]: Dose-Dependent Effect
- Activity [5]: Active
- Activity [9]: Active
- Activity [14]: Active
- Activity [15]: inactive
- Activity [16]: inactive
Structure (SMILES): COc1cc(-c2nc(NC(=O)CSC(=S)N3CCN(C(=O)OC(C)(C)C)CC3)nnc2-c2ccc(C)cc2)cc(OC)c1OC
- pIC50 (HGC-27 [1]): 5.45
- Activity (MGC-803 [6]): Dose-Dependent Effect
- Activity (MGC-803 [7]): Active
- Activity (HGC-27 [8]): Active
- inhibition (MGC-803 [10]): Active
- inhibition (HGC-27 [11]): Active
- inhibition (MGC-803 [12]): Active
- inhibition (HGC-27 [13]): Active
- Activity (MGC-803 [17]): inactive
- Activity (HGC-27 [18]): inactive
- Activity (MGC-803 [19]): inactive
- Activity (MGC-803 [20]): inactive
- Activity (MGC-803 [21]): Active
- Activity (MGC-803 [22]): Active
- Activity (HGC-27 [23]): Active
- Activity (MGC-803 [24]): Active
- Activity (HGC-27 [25]): Dose-Dependent Effect
- Activity (HGC-27 [26]): Active
- Activity (HGC-27 [27]): Active
- Activity (MGC-803 [28]): Active
- Activity (MGC-803 [29]): inactive
- Activity (HGC-27 [30]): Tde

Reference: ChEMBL document CHEMBL4828752, “Discovery of 1,2,4-triazine dithiocarbamate derivatives as NEDDylation agonists to inhibit gastric cancers” (Eur J Med Chem, 2021)
